Activity calls are given as the source filed them. No rule for the calls is given here.
Test system: CCRIS mutagenicity, Ames/micronucleus/aberration tests
Assay: CCRIS mutagenicity studies

`Nc1ccc2cc3ccccc3cc2c1` was tested, and the mutagenic call (Test System: AMES SALMONELLA TYPHIMURIUM, Strain/Indicator: TA100, Metabolic Activation: RAT, LIVER, S-9, AROCLOR 1254 OR PHENOBARBITOL, Method: STANDARD PLATE) was “active; positive”, the mutagenic call (Test System: AMES SALMONELLA TYPHIMURIUM, Strain/Indicator: TA100, Metabolic Activation: RAT, LIVER, S-9, PHENOBARBITAL, Method: STANDARD PLATE) was “active; positive” and the mutagenic call (Test System: AMES SALMONELLA TYPHIMURIUM, Strain/Indicator: TA1535 (PSK1002), Metabolic Activation: RAT, LIVER, S-9, AROCLOR 1254, Method: PREINCUBATION) was “active; positive”. For the same compound, the mutagenic call (Test System: AMES SALMONELLA TYPHIMURIUM, Strain/Indicator: TA1535, Metabolic Activation: NONE, Method: SPIRAL ASSAY) was “inactive; negative”, the mutagenic call (Test System: AMES SALMONELLA TYPHIMURIUM, Strain/Indicator: TA1535, Metabolic Activation: RAT, LIVER, S-9, AROCLOR 1254 (2%), Method: STANDARD PLATE) was “inactive; negative” and the mutagenic call (Test System: AMES SALMONELLA TYPHIMURIUM, Strain/Indicator: TA1535, Metabolic Activation: RAT, LIVER, S-9, AROCLOR 1254, Method: SPIRAL ASSAY) was “active; positive”. The mutagenic call (Test System: AMES SALMONELLA TYPHIMURIUM, Strain/Indicator: TA1535, Metabolic Activation: RAT, LIVER, S-9, AROCLOR 1254, Method: STANDARD PLATE) was “active; positive”, the mutagenic call (Test System: AMES SALMONELLA TYPHIMURIUM, Strain/Indicator: TA1535, Metabolic Activation: RAT, LIVER, S-9, AROCLOR 1254 OR PHENOBARBITOL, Method: STANDARD PLATE) was “active; positive” and the mutagenic call (Test System: AMES SALMONELLA TYPHIMURIUM, Strain/Indicator: TA1535, Metabolic Activation: RAT, LIVER, S-9, PHENOBARBITAL, Method: STANDARD PLATE) was “active; positive”. The mutagenic call (Test System: AMES SALMONELLA TYPHIMURIUM, Strain/Indicator: TA1537, Metabolic Activation: NONE, Method: SPIRAL ASSAY) was “inactive; negative”, the mutagenic call (Test System: AMES SALMONELLA TYPHIMURIUM, Strain/Indicator: TA1537, Metabolic Activation: NONE, Method: STANDARD PLATE) was “inactive; negative” and the mutagenic call (Test System: AMES SALMONELLA TYPHIMURIUM, Strain/Indicator: TA1537, Metabolic Activation: RAT, LIVER, S-9, AROCLOR 1254 (2%), Method: STANDARD PLATE) was “active; positive”. For the same compound, the mutagenic call (Test System: AMES SALMONELLA TYPHIMURIUM, Strain/Indicator: TA1537, Metabolic Activation: RAT, LIVER, S-9, AROCLOR 1254, Method: SPIRAL ASSAY) was “active; positive”, the mutagenic call (Test System: AMES SALMONELLA TYPHIMURIUM, Strain/Indicator: TA1537, Metabolic Activation: RAT, LIVER, S-9, AROCLOR 1254, Method: STANDARD PLATE) was “active; positive” and the mutagenic call (Test System: AMES SALMONELLA TYPHIMURIUM, Strain/Indicator: TA1537, Metabolic Activation: RAT, LIVER, S-9, AROCLOR 1254 OR PHENOBARBITOL, Method: STANDARD PLATE) was “active; positive”. The mutagenic call (Test System: AMES SALMONELLA TYPHIMURIUM, Strain/Indicator: TA1538, Metabolic Activation: NONE, Method: STANDARD PLATE) was “inactive; negative”, the mutagenic call (Test System: AMES SALMONELLA TYPHIMURIUM, Strain/Indicator: TA1538, Metabolic Activation: RAT, LIVER, S-9, AROCLOR 1254, Method: STANDARD PLATE) was “active; positive” and the mutagenic call (Test System: AMES SALMONELLA TYPHIMURIUM, Strain/Indicator: TA1538, Metabolic Activation: RAT, LIVER, S-9, AROCLOR 1254 OR PHENOBARBITOL, Method: STANDARD PLATE) was “active; positive”. The mutagenic call (Test System: AMES SALMONELLA TYPHIMURIUM, Strain/Indicator: TA1538, Metabolic Activation: RAT, LIVER, S-9, PHENOBARBITAL, Method: STANDARD PLATE) was “active; positive”, the mutagenic call (Test System: AMES SALMONELLA TYPHIMURIUM, Strain/Indicator: YG1012, Metabolic Activation: RAT, LIVER, S-9, PHENOBARBITAL AND 5,6-BENZOFLAVONE, Method: PREINCUBATION) was “active; positive” and the mutagenic call (Test System: AMES SALMONELLA TYPHIMURIUM, Strain/Indicator: YG1019, Metabolic Activation: RAT, LIVER, S-9, PHENOBARBITAL AND 5,6-BENZOFLAVONE, Method: PREINCUBATION) was “active; positive”. For the same compound, the mutagenic call (Test System: AMES SALMONELLA TYPHIMURIUM, Strain/Indicator: YG1020, Metabolic Activation: RAT, LIVER, S-9, PHENOBARBITAL AND 5,6-BENZOFLAVONE, Method: PREINCUBATION) was “active; positive”, the mutagenic call (Test System: AMES SALMONELLA TYPHIMURIUM, Strain/Indicator: YG1024, Metabolic Activation: RAT, LIVER, S-9, PHENOBARBITAL AND 5,6-BENZOFLAVONE, Method: PREINCUBATION) was “active; positive” and the mutagenic call (Test System: AMES SALMONELLA TYPHIMURIUM, Strain/Indicator: YG1025, Metabolic Activation: RAT, LIVER, S-9, PHENOBARBITAL AND 5,6-BENZOFLAVONE, Method: PREINCUBATION) was “active; positive”. For the same compound, the mutagenic call (Test System: AMES SALMONELLA TYPHIMURIUM, Strain/Indicator: YG1029, Metabolic Activation: RAT, LIVER, S-9, PHENOBARBITAL AND 5,6-BENZOFLAVONE, Method: PREINCUBATION) was “active; positive”, the mutagenic call (Test System: Ames Salmonella typhimurium, Strain/Indicator: YG7108pin3ERb5, Metabolic Activation: None, Method: Standard plate) was “active; positive” and the mutagenic call (Test System: CHINESE HAMSTER OVARY, Strain/Indicator: CHO-K1-BH4 (HGPRT), Metabolic Activation: RAT, LIVER, S-9, AROCLOR, Method: SUSPENSION/PLATE) was “active; positive”. The mutagenic call (Test System: E. COLI, Strain/Indicator: WP2 UVRA, Metabolic Activation: NONE, Method: STANDARD PLATE) was “inactive; negative”, the mutagenic call (Test System: MOUSE LYMPHOMA, Strain/Indicator: L5178Y (TK+/TK-), Metabolic Activation: NONE, Method: SUSPENSION/PLATE) was “inactive; negative” and the mutagenic call (Test System: MOUSE LYMPHOMA, Strain/Indicator: L5178Y (TK+/TK-), Metabolic Activation: RAT, LIVER, S-9, AROCLOR 1254, Method: SUSPENSION/PLATE) was “active; positive”.
